Laboratory results as given in patent publication US11464770B2, “Anticancer pharmaceutical composition” (NATIONAL CANCER CENTER, priority 2016, dated 2022).
Read-outs that look alike come from different tables or passages of the source.

Test system: pancreatic cancer cell lines (e.g. MIA PaCa-2)
Experiment: Cell based assay, cell viability (CellTiter-Glo), pancreatic cancer cell lines
Conditions: Homo sapiens
Description: Commercially available bladder cancer, prostate cancer, lung cancer, breast cancer, blood cancer, pancreatic cancer, colorectal cancer, brain cancer, neuroblastoma, melanoma, liver cancer, cervical carcinoma, ovarian cancer, renal cancer, and papilloma cell lines were each treated with trypsin-EDTA and cultured, followed by being seeded in each well of a 96 well plate. After 24 hours of treatment at constant temperature, the respective cells were treated with the candidate compound so that a final concentration became 0 to 2 μM. The treated cells were additionally cultured for 72 hours, and cell viability was measured by using an ATP detection method (CellTiter-Glo® Luminescent Cell Viability Assay, Promega).

[1] = pancreatic cancer cell line AsPC-1, 72 hours, read-out: IC50, AsPC-1
[2] = pancreatic cancer cell line BxPC-3, 72 hours, read-out: IC50, BxPC-3
[3] = pancreatic cancer cell line CFPAC-1, 72 hours, read-out: IC50, CFPAC-1
[4] = pancreatic cancer cell line Capan-1, 72 hours, read-out: IC50, Capan-1
[5] = pancreatic cancer cell line Capan-2, 72 hours, read-out: IC50, Capan-2
[6] = pancreatic cancer cell line MIA PaCa-2, 72 hours, read-out: IC50, MIA PaCa-2
[7] = pancreatic cancer cell line PANC-1, 72 hours, read-out: IC50, PANC-1

Structure (SMILES)	IC50 [1]	IC50 [2]	IC50 [3]	IC50 [4]	IC50 [5]	IC50 [6]	IC50 [7]
CC(=O)c1c([S+]([O-])C(C)c2ccccc2)[nH]c2c(Br)ccc(Cl)c2c1=O (stereo not drawn) [Compound 26, 3-acetyl-8-bromo-5-chloro-2-((1-phenylethyl)sulfinyl)quinolin-4(1H)-one]	> 2 µM	> 2 µM	> 10 µM	> 2 µM	> 2 µM	> 2 µM	> 2 µM
CC(=O)c1c([S+](C)[O-])n(S(=O)(=O)c2ccc(C(C)(C)C)cc2)c2c(Br)ccc(Cl)c2c1=O (stereo not drawn) [Compound 42, 3-acetyl-8-bromo-1-((4-(tert-butyl)phenyl)sulfonyl)-5-chloro-2-(methylsulfinyl)quinolin-4(1H)-one]	> 2 µM	> 2 µM	> 10 µM	> 2 µM	> 2 µM	> 2 µM	> 2 µM
CC(=O)c1c(S(=O)(=O)Cc2ccccc2)nc2c(Br)ccc(Cl)c2c1O [Compound 54, 1-(2-(benzylsulfonyl)-8-bromo-5-chloro-4-hydroxyquinolin-3-yl)ethan-1-one]	> 2 µM	> 2 µM	> 10 µM	> 2 µM	> 2 µM	> 2 µM	> 2 µM
COc1cccc2[nH]c([S+]([O-])Cc3ccc(S(F)(F)(F)(F)F)cc3)c(C(C)=O)c(=O)c12 (stereo not drawn) [Compound 93, 3-acetyl-5-methoxy-2-((4-(pentafluoro--sulfanyl)benzyl)sulfinyl)quinolin-4(1H)-one]	> 2 µM	> 2 µM	> 10 µM	> 2 µM	> 2 µM	> 2 µM	> 2 µM
CSc1c(C(C)=O)c(=O)c2c(Cl)ccc(Br)c2n1S(=O)(=O)c1ccc([N+](=O)[O-])cc1 [Compound 38, 3-acetyl-8-bromo-5-chloro-2-(methylthio)-1-((4-nitrophenyl)sulfonyl)quinolin-4(1H)-one]	> 2 µM	> 2 µM	> 10 µM	> 2 µM	> 2 µM	> 2 µM	> 2 µM
CC(=O)c1c(S/C=C\C(=O)O)[nH]c2c(Br)ccc(Cl)c2c1=O [Compound 67, (Z)-3-((3-acetyl-8-bromo-5-chloro-4-oxo-1,4-dihydroquinolin-2-yl)thio)acrylic acid]	> 2 µM	> 2 µM	> 10 µM	> 2 µM	> 2 µM	> 2 µM	> 2 µM
CC(=O)c1c([S+]([O-])Cc2ccc(Cl)cc2)[nH]c2c(Br)ccc(Cl)c2c1=O (stereo not drawn) [Compound 11, 3-acetyl-8-bromo-5-chloro-2-((4-chlorobenzyl)sulfinyl)quinolin-4(1H)-one]	> 2 µM	> 2 µM	> 10 µM	> 2 µM	> 2 µM	> 2 µM	> 2 µM
CC(=O)c1c([S+]([O-])Cc2ccccc2)n(C(=O)c2ccc(Br)cc2)c2c(Br)ccc(Cl)c2c1=O (stereo not drawn) [Compound 20, 3-acetyl-2-(benzylsulfinyl)-8-bromo-1-(4-bromobenzoyl)-5-chloroquinolin-4(1H)-one]	> 2 µM	> 2 µM	> 10 µM	> 2 µM	> 2 µM	> 2 µM	> 2 µM
CC(=O)c1c(SCc2ccc([N+](=O)[O-])cc2)[nH]c2c(Br)ccc(Cl)c2c1=O [Compound 32, 3-acetyl-8-bromo-5-chloro-2-((4-nitrobenzyl)thio)quinolin-4(1H)-one]	> 2 µM	> 2 µM	> 10 µM	> 2 µM	> 2 µM	> 2 µM	> 2 µM
COc1ccccc1[S+]([O-])c1[nH]c2c(Br)ccc(Cl)c2c(=O)c1C(C)=O (stereo not drawn) [Compound 15, 3-acetyl-8-bromo-5-chloro-2-((2-methoxyphenyl)sulfinyl)quinolin-4(1H)-one]	> 2 µM	> 2 µM	> 10 µM	> 2 µM	> 2 µM	1.63 µM	> 2 µM
CSc1c(C(C)=O)c(=O)c2c(Cl)ccc(Br)c2n1S(C)(=O)=O [Compound 35, 3-acetyl-8-bromo-5-chloro-1-(methylsulfonyl)-2-(methylthio)quinolin-4(1H)-one]	> 2 µM	> 2 µM	> 10 µM	> 2 µM	> 2 µM	> 2 µM	> 2 µM
CC(=O)c1c([S+]([O-])C(C)C)[nH]c2c(Br)ccc(Cl)c2c1=O (stereo not drawn) [Compound 25, 3-acetyl-8-bromo-5-chloro-2-(isopropylsulfinyl)quinolin-4(1H)-one]	> 2 µM	> 2 µM	> 10 µM	> 2 µM	> 2 µM	> 2 µM	> 2 µM
CC(=O)c1c([S+]([O-])Cc2ccc(S(F)(F)(F)(F)F)cc2)[nH]c2c(Br)ccc(Cl)c2c1=O (stereo not drawn) [Compound 68, 3-acetyl-8-bromo-5-chloro-2-((4-(pentafluoro-16-sulfanyl)benzyl)sulfinyl)quinolin-4(1H)-one]	> 2 µM	> 2 µM	> 10 µM	> 2 µM	> 2 µM	1.12 µM	> 2 µM
CC(=O)c1c(SCc2cccc(C#N)c2)[nH]c2c(Br)ccc(Cl)c2c1=O [Compound 27, 3-(((3-acetyl-8-bromo-5-chloro-4-oxo-1,4-dihydroquinolin-2-yl)thio)methyl)benzonitrile]	> 2 µM	> 2 µM	> 10 µM	> 2 µM	> 2 µM	> 2 µM	> 2 µM
CSc1c(C(C)=O)c(=O)c2c(Cl)ccc(Br)c2n1S(=O)(=O)c1ccc(C(C)(C)C)cc1 [Compound 40, 3-acetyl-8-bromo-1-((4-(tert-butyl)phenyl)sulfonyl)-5-chloro-2-(methylthio)quinolin-4(1H)-one]	> 2 µM	> 2 µM	> 10 µM	> 2 µM	> 2 µM	> 2 µM	> 2 µM
CC(C)C(=O)c1c([S+]([O-])Cc2ccc(SC(F)(F)F)cc2)[nH]c2c(F)ccc(F)c2c1=O (stereo not drawn) [Compound 85, 5,8-difluoro-3-isobutyryl-2-((4-((trifluoromethyl)thio)benzyl)sulfinyl)quinolin-4(1H)-one]	> 2 µM	> 2 µM	> 10 µM	> 2 µM	> 2 µM	> 2 µM	> 2 µM
O=C(c1c([S+]([O-])Cc2ccc(SC(F)(F)F)cc2)[nH]c2c(Br)ccc(Cl)c2c1=O)C1CC1 (stereo not drawn) [Compound 101, 8-bromo-5-chloro-3-(cyclopropanecarbonyl)-2-((4-((trifluoromethyl)thio)benzyl)sulfinyl)quinolin-4(1H)-one]	> 2 µM	> 2 µM	> 10 µM	> 2 µM	> 2 µM	1.83 µM	> 2 µM
CC(=O)c1c([S+]([O-])Cc2nonc2C)[nH]c2c(Br)ccc(Cl)c2c1=O (stereo not drawn) [Compound 106, 3-acetyl-8-bromo-5-chloro-2-(((4-methyl-1,2,5-oxadiazol-3-yl)methyl)sulfinyl)quinolin-4(1H)-one]	> 2 µM	> 2 µM	> 10 µM	> 2 µM	> 2 µM	> 2 µM	> 2 µM
CC(=O)c1c(SCc2ccccc2)nc2c(Br)ccc(Cl)c2c1O [Compound 52, 1-(2-(benzylthio)-8-bromo-5-chloro-4-hydroxyquinolin-3-yl)ethan-1-one]	> 2 µM	> 2 µM	> 10 µM	> 2 µM	> 2 µM	> 2 µM	> 2 µM
COCSc1[nH]c2c(Br)ccc(Cl)c2c(=O)c1C(C)=O [Compound 61, 3-acetyl-8-bromo-5-chloro-2-((methoxymethyl)thio)quinolin-4(1H)-one]	> 2 µM	> 2 µM	> 10 µM	> 2 µM	> 2 µM	> 2 µM	> 2 µM
CC(=O)c1c([S+]([O-])Cc2ccccc2)nc2c(Br)ccc(Cl)c2c1O (stereo not drawn) [Compound 4]	> 2 µM	> 2 µM	> 10 µM	> 2 µM	> 2 µM	1.34 µM	> 2 µM
CCS(=O)(=O)n1c([S+](C)[O-])c(C(C)=O)c(=O)c2c(Cl)ccc(Br)c21 (stereo not drawn) [Compound 39, 3-acetyl-8-bromo-5-chloro-1-(ethylsulfonyl)-2-(methylsulfinyl)quinolin-4(1H)-one]	> 2 µM	> 2 µM	> 10 µM	> 2 µM	> 2 µM	> 2 µM	> 2 µM
CC(=O)c1c(SCc2ccccc2)n(C(=O)c2ccc(Br)cc2)c2c(Br)ccc(Cl)c2c1=O [Compound 23, 3-acetyl-2-(benzylthio)-8-bromo-1-(4-bromobenzoyl)-5-chloroquinolin-4(1H)-one]	> 2 µM	> 2 µM	> 10 µM	> 2 µM	> 2 µM	> 2 µM	> 2 µM
CC(=O)c1c(SCc2cc(F)cc(F)c2)[nH]c2c(Br)ccc(Cl)c2c1=O [Compound 45, 3-acetyl-8-bromo-5-chloro-2-((3,5-difluorobenzyl)thio)quinolin-4(1H)-one]	> 2 µM	> 2 µM	> 10 µM	> 2 µM	> 2 µM	> 2 µM	> 2 µM
COCCNc1ccc(C[S+]([O-])c2[nH]c3c(Br)ccc(Cl)c3c(=O)c2C(C)=O)cn1 (stereo not drawn) [Compound 105, 3-acetyl-8-bromo-5-chloro-2-(((6-((2-methoxyethyl)amino)pyridin-3-yl)methyl)sulfinyl)quinolin-4(1H)-one]	> 2 µM	> 2 µM	> 10 µM	> 2 µM	> 2 µM	> 2 µM	> 2 µM
CC(=O)c1c([S+]([O-])Cc2cnc3[nH]ccc3c2)[nH]c2c(Br)ccc(Cl)c2c1=O (stereo not drawn) [Compound 107, 2-(((1H-pyrrolo[2,3-b]pyridin-5-yl)methyl)sulfinyl)-3-acetyl-8-bromo-5-chloroquinolin-4(1H)-one]	> 2 µM	> 2 µM	> 10 µM	> 2 µM	> 2 µM	> 2 µM	> 2 µM
CC(=O)c1c(Sc2ccc(Br)cc2)[nH]c2c(Br)ccc(Cl)c2c1=O [Compound 16, 3-acetyl-8-bromo-2-((4-bromophenyl)thio)-5-chloroquinolin-4(1H)-one]	> 2 µM	> 2 µM	> 10 µM	> 2 µM	> 2 µM	> 2 µM	> 2 µM
